Three compounds from patent US20230181727A1, “COMPOSITION OF NANOPARTICLES” (priority 2020, published 2023) can be followed below.

Series [1] in a line: Solubility enhancement of epitopes (solubility in water). The class given is physicochemical. The source says: On the N-terminal site of the enzymatically cleaved linker the addition of polar amino acids can be used to enhance the solubility of the whole peptide. […] The use in a human vaccine is difficult. In animal studies researchers dissolve it in DMSO. The solubility after e.g. subcutaneous injection is questionable: dilution might result in precipitation of large peptide particles, which is very unfavorable for transport to lymphnodes.
According to the invention the epitope […] was enlarged on the N-terminal site with the enzymatic cleavable linker Val-Cit and the cationic solubilizing sequence Lys-Lys-Lys, leading to […]

For a further series, the system named is DC2.4 cells. The series is described as follows: MHC I cross presentation of OVA 257-264 in DC2.4 cells. Type of series: cell-based, murine. Particulars: 5 μM, 6 h incubation, 25-D1.16 antibody, flow cytometry. The protocol:
In the experiment, the OVA257-264 presentation efficacy after incubation of 5.10^4 DC2.4 cells with 5 μM solutions of full length protein (OVA=Ovalbumin), N— and C-terminal elongated epitope (OVA247-264A5K, a so called synthetic long peptide (SLP)), N-terminal elongated epitope with a Cathepsin B cleavable sequence (exemplary shown RW-Cit-OVA257-264) or native epitope (OVA257-264), each with and without nanoparticles, was compared. […] After an incubation time of 6 h, the test substances are removed by washing with phosphate-buffered saline (PBS). In the next step, the cells were incubated with CD1 6/CD32 antibody in order to block the non-specific binding of the detection antibody to the Fc (Fragment, crystallizable) receptor of the cells. After incubation with 25-D1.16 antibody, the amount of cross-presented OVA257-264 was quantified by flow cytometry.
FIG. 16: OVA257-264 MHC I expression after 6 h incubation of H2-Kb positive cells with 5 μM solution of native or elongated OVA257-264 epitope or full length OVA protein with or without SiO2—PO3H2. Quantification was carried out by flow cytometry after labeling with 25-D1.16 detection antibody.
(In general: A flow cytometer gives signals particle by particle.)

Turning to `CC[C@H](C)[C@H](NC(=O)CNC(=O)[C@H](CC(C)C)NC(=O)[C@@H](NC(=O)CNC(=O)[C@H](CCSC)NC(=O)[C@H](CC(C)C)NC(=O)[C@H](CC(C)C)NC(=O)[C@H](CCCNC(N)=O)NC(=O)[C@@H](NC(=O)[C@H](CCCCN)NC(=O)[C@H](CCCCN)NC(=O)[C@@H](N)CCCCN)C(C)C)[C@@H](C)O)C(=O)N[C@H](C(=O)O)C(C)C`, the solubility in water result in series [1] is reported as “excellent solubility in water”.
Still for that read-out and setting: the same measure for `CC[C@H](C)[C@H](NC(=O)CNC(=O)[C@H](CC(C)C)NC(=O)[C@@H](NC(=O)CNC(=O)[C@H](CCSC)NC(=O)[C@H](CC(C)C)NC(=O)[C@@H](N)CC(C)C)[C@@H](C)O)C(=O)N[C@H](C(=O)O)C(C)C`: “very bad solubility in water”.
Regarding SIINFEKL [OVA257-264], the “OVA257-264 MHC I expression” value in the series with DC2.4 cells is listed as “presented in significant amounts”.
